This is an account of results in patent US8716480B2, “7-aryl-1,2,4-triazolo[4,3-a]pyridine derivatives and their use as positive allosteric modulators of mGluR2 receptors” (Janssen Pharmaceuticals, Inc., priority 2009, dated 2014).

Data set [1] concerns the target T1, human mGluR2 receptor (Homo sapiens, UniProt Q14416).
T1 construct: expressed in transfected cells; host or cells: CHO cells (membranes)
Nature of the data set: [35S]GTPγS binding assay (PAM). Format: biochemical. Particulars: in presence of glutamate at predetermined EC20; membranes from CHO cells transfected with human mGluR2; read-out: GTPγS -hR2 PAM pEC50 (converted). Here is the method: [^35S]GTPγS binding assay
The [^35S]GTPγS binding assay is a functional membrane-based assay used to study G-protein coupled receptor (GPCR) function whereby incorporation of a non-hydrolysable form of GTP, [^35S]GTPγS (guanosine 5′-triphosphate, labelled with […] ^35S), is measured.
CHO-cells were cultured to pre-confluence and stimulated with 5 mM butyrate for 24 h, prior to washing in PBS, and then collected by scraping in homogenisation buffer (50 mM Tris-HCl buffer, pH 7.4, 4° C.). Cell lysates were homogenized briefly using an ultra-turrax homogenizer. The homogenate was centrifuged at 16,000 RPM (Sorvall RC-5C plus rotor SS-34) for 10 minutes and the supernatant discarded. The pellet was resuspended in 5 mM Tris-HCl, pH 7.4 and centrifuged again (18,000 RPM, 20 min, 4° C.). The final pellet was resuspended in 50 mM Tris-HCl, pH 7.4 and stored at −80° C. in appropriate aliquots before use. Protein concentration was determined by the Bradford method (Bio-Rad, USA) with bovine serum albumin as standard.
Measurement of mGluR2 positive allosteric modulatory activity of test compounds was performed as follows. Test compounds and glutamate were diluted in assay buffer containing 10 mM HEPES acid, 10 mM HEPES salt, pH 7.4, 100 mM NaCl, 3 mM MgCl2 and 10 μM GDP. Human mGlu2 receptor-containing membranes were thawed on ice and diluted in assay buffer supplemented with 14 μg/ml saponin. Membranes were pre-incubated with compound alone or together with a predefined (˜EC20) concentration of glutamate (PAM assay) for 30 min at 30° C. After addition of [^35S]GTPγS (f.c. 0.1 nM) microplates were shaken briefly and further incubated to allow [^35S]GTPγS incorporation on activation (30 minutes, 30° C.). Final assay mixtures contained 7 μg of membrane protein in 10 mM HEPES acid, 10 mM HEPES salt, pH 7.4, 100 mM NaCl, 3 mM MgCl2, 10 μM GDP and 10 μg/ml saponin. Total reaction volume was […] Reactions were terminated by rapid filtration through Unifilter-96 GF/B filter plates (Packard, Meriden, Conn.) using a 96-well Packard filtermate harvester. Filters were washed 6 times with ice-cold 10 mM NaH2PO4/10 mM Na2HPO4, pH 7.4. Filters were then air-dried, and 40 μl of liquid scintillation cocktail (Microscint-O) was added to each well. Membrane-bound radioactivity was counted in a Microplate Scintillation and Luminescence Counter from Packard.
obtained in the presence of EC20 of mGluR2 agonist glutamate to determine positive allosteric modulation (PAM)—were generated using the Lexis software interface (developed at J&J). Data were calculated as % of the control glutamate response, defined as the maximal response that is generated upon addition of glutamate alone. Sigmoid concentration-response curves plotting these percentages versus the log concentration of the test compound were analyzed using non-linear regression analysis. The concentration producing half-maximal effect is then calculated as EC50.
All compounds were tested in presence of mGluR2 agonist, glutamate at a predetermined EC20 concentration, to determine positive allosteric modulation (GTPγS-PAM). pEC50 values were calculated from a concentration-response experiment of at least 10 concentrations.

Data set [2] concerns male NMRI mice. Nature of the data set: Phencyclidine (PCP)-induced hyperlocomotion in mice. The conditions noted are these: Mus musculus; mice; PCP 5 mg/kg s.c.; criterion total distance <5500 counts; not marked as oral; read-out: ED50 PCP-Inh. Format: in vivo. How it is done:
(§1) On the day of experiments, the mice were brought into the procedural room. They were housed individually and allowed to acclimate for at least a half hour prior to testing. Although the studies were conducted during the light cycle (from 8:00 to 16:00 h), the procedure room was only sparsely lit (3 to 30 LUX) to provide better contrast for the video tracking. Local lighting was used for the injection procedures. During each trial, an individual mouse was placed in an open field arena (grey PVC cylinder with a height of 40 cm and a diameter of 22.5 cm). Each arena was placed on an infrared LED (8×8 LEDs)-lit box (white PVC squared box; 40×40 cm^2; height 12.5 cm). Each mouse was placed in the center of the arena and allowed to explore freely for 30 min. After each trial, the arena was cleaned with a wet and subsequently with a dry cleaning cloth. An infrared sensitive tube camera and a white light source (in arena: 4-7 LUX) were mounted to the ceiling above the observation chamber to record and input activity to a computer. Animal behavior was recorded and analyzed using the Noldus Ethovision XT Video Tracking System (Version 3.1; Noldus, Wageningen, The Netherlands). The total distance traveled (cm) was calculated. Data were then exported to data management systems for further analysis and reporting.
Test compound or solvent was administered at a pre-defined time before measurement (standard: 30 min) to male NMRI mice that were challenged with phencyclidine (PCP; 5 mg/kg, s.c.) 30 min before measurement. Activity was measured for a period of 30 min.

The test system of data set [3] is male Wiga Wistar rats. Nature of the data set: Conditioned avoidance response (CAR) test. Format: in vivo. The conditions noted are these: Rattus norvegicus, po. The source says: The apparatus consisted of an inner box surrounded by an outer box. The inner box was composed of four walls of transparent, synthetic material (length×width×height: 30×30×30 cm), an open top, and a grid floor made of 15 pairs of iron bars (2 mm diameter; 6 mm inter-bar distance). Odd and even bars were connected with a source of alternative current (1.0 mA; Coulbourn Instruments Solid State Shocker/Distributor), which could be interrupted by a switch. The outer box was composed of the same material (length×width×height: 40×40×36 cm), also with an open top, with a distance of 5 cm between the inner and outer box on all sides. To decrease the amount of environmental stimuli, three walls of the outer box were made non-transparent. The front wall was left transparent to allow the necessary inspection of the animal during the test. The upper edge of the outer and inner box served as a target for the rats on which to jump with fore- and hind-paws, respectively.
From their arrival in the laboratory on the experimental day, male Wiga Wistar rats (230±30 g) were housed in individual cages provided with bedding material.
Latency to avoidance was recorded. The median avoidance response obtained over the three experimental sessions for each rat were used for further calculations.

Data set [4] relates to Male mice (C57BL/6). Nature of the data set: Reversal of memantine-induced brain activation ([14C]2DG uptake) in mice. Format: in vivo. Particulars: for L.A.D. (lowest active dose) for significant (p<0.05) reduction of 2DG uptake in the hippocampus compared to memantine response: mice, s.c., memantine 20 mg/kg s.c. Here is the method:
Reversal of Memantine-Induced Brain Activation in Mice NMDA receptor hypofunction is hypothesized to be involved in schizophrenia.
Autoradiographic assessment of radiolabeled [^14C]-2-deoxyglucose ([^14C]2DG) uptake is commonly used to investigate brain activation. In humans, cerebral blood flow is increased in specific brain regions after administration of a subanaesthetic dose of ketamine.
Male mice (C57BL/6, weight 24-28 g, fasted overnight; n=10 animals per group) were treated with vehicle or test compound (s.c.) in randomized order (t=0 min). Memantine (20 mg/kg, s.c.) was injected 30 min later (t=30 min). At t=45 min, [^14C]2DG (0.16 μCi/g) was administered intraperitoneally (i.p.), followed by a 45 min uptake period. Animals were decapitated (t=90 min), plasma glucose levels measured, the brain removed, rapidly frozen and stored at −20° C. until sectioned. Brain sections were exposed together to a precalibrated [^14C]standard on film, which was developed after four days of exposure. Local tissue [^14C]concentration (nCi/mg tissue equivalent—TEQ-) in each region of interest was determined.
Data was analyzed statistically using a two-way ANOVA analysis followed by post-hoc tests (memantine response versus reversal by the compound). The results are shown in table 5 below, expressed as lowest active dose (L.A.D.) required to exert a statistically significant (p<0.05) reduction of 2DG uptake in the hippocampus compared to memantine response.

Data set [5] concerns rats. Nature of the data set: Sleep wake electroencephalography (SW-EEG) in rats. Format: in vivo. Particulars: 3 mg/kg, p.o. The source says: Sleep Wake Electroencephalography (SW-EEG) in Rats SW-EEG analyses are a highly sensitive read-out of a compound's central functional activity that may provide additional insight in the potential therapeutic application (i.e. via drug classification fingerprinting). […] Internal efforts have confirmed that this effect is mGlu2 receptor-mediated, i.e. is absent in mGlu2 KO mice. Sleep abnormalities are often associated with CNS disorders; as such, the potential use of mGlu2 modulators could also have benefit in the treatment of CNS disorders in which (REM) sleep aberrations are manifested. More specifically, the combination of a persistent reduction in REM occurrence and an increase in REM latency is one of the key features of the typical SW architecture fingerprint of most clinically active antidepressants.
We investigated the effects of oral administration of compounds according to the invention on SW organization in rats. The mGlu2/3 receptor agonist LY404039 was also evaluated to allow comparison.

In data set [6] the test system is male NMRI mice. Nature of the data set: d-Amphetamine-induced hyperlocomotion in mice. Format: in vivo. The conditions noted are these: Mus musculus, d-amphetamine 5 mg/kg s.c., compound administered orally, read-out: ED50 Amp.-Inh. Here is the method: as §1, with “An infrared sensitive tube camera and a white light source (in arena: 4-7 LUX) were mounted to the ceiling above the observation chamber to record and input activity to a computer.” left out, “Data were then exported to data management systems for further analysis and reporting.” left out
Test compound or solvent was administered at a pre-defined time before measurement (standard: 30 min) to male NMRI mice that were challenged with d-amphetamine (5 mg/kg, s.c.) 30 min before measurement. Activity was measured for a period of 30 min.

Setting [7] is: compound administered orally, criterion median avoidance latency >8 s, read-out: ED50 CAR-Inh.
The mark [8] stands for this setting: not marked as oral, criterion median avoidance latency >8 s, read-out: ED50 CAR-Inh.

Where two headings read alike, the source gives them in different places. A value given as a limit tells only on which side of the number the result lay.

T1 sequence (Q14416 19-872): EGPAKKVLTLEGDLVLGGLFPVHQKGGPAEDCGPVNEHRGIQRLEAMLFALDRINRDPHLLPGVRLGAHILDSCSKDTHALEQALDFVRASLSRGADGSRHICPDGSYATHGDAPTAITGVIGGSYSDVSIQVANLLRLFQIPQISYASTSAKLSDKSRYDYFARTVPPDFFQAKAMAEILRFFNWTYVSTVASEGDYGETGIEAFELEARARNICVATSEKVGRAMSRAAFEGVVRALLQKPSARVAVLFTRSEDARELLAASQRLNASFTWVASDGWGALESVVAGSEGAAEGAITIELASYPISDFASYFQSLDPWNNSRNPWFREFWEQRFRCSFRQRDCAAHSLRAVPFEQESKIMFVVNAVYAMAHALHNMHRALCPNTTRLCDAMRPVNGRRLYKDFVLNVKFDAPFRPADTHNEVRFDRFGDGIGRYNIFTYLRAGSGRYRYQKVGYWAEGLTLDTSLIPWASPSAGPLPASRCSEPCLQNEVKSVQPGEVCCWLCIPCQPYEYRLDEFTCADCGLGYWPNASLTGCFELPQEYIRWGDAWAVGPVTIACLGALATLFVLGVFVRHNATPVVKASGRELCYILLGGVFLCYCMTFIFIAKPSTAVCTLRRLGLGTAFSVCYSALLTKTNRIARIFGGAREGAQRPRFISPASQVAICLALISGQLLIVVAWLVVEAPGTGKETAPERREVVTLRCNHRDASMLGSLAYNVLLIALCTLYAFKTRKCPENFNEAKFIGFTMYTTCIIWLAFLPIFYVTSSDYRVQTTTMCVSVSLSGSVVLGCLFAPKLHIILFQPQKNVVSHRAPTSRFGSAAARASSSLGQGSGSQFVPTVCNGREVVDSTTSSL

Take `Cc1ccc(Oc2ccc(-c3ccn4c(CC5CC5)nnc4c3C(F)(F)F)cc2F)c(C)n1` [Co. No. 4]: in data set [1], the EC50 was 10.2 nM. For the same compound, the median effective dose (ED50) is 15.2 mg/kg in data set [2]; 20 mg/kg in data set [3] (compound administered orally, estimated ED50 (n = 3 per dose; 4-fold separation between doses), read-out: ED50 CAR-Inh. (estimated)); 7.9 mg/kg in data set [3] (not marked as oral, estimated ED50 (n = 3 per dose; 4-fold separation between doses), read-out: ED50 CAR-Inh. (estimated)). In addition, the “L.A.D. (lowest active dose) for significant (p<0.05) reduction of 2DG uptake in the hippocampus compared to memantine response” value in data set [4] was “≦10 mg/kg”.
For `Cc1cc(Oc2ccc(-c3ccn4c(CC(F)(F)F)nnc4c3Cl)cc2F)ccn1` [Co. No. 1, 7-[3-Fluoro-4-(2′-methyl-pyridin-4-yloxy)-phenyl]-8-chloro-3-(2,2,2-trifluoro-ethyl)-1,2,4-triazolo[4,3-a]pyridine], the melting point came to 130.1 °C. Besides, the EC50 in data set [1] is 209 nM. For the same compound, the ED50 in data set [2] worked out at 18.7 mg/kg. The ED50 in data set [3] (setting [7]) amounted to 21.4 mg/kg. Further, the ED50 in data set [3] (setting [8]) was 12.3 mg/kg. For the same compound, the “L.A.D. (lowest active dose) for significant (p<0.05) reduction of 2DG uptake in the hippocampus compared to memantine response” value in data set [4] was over 10 mg/kg.
As for `N[C@@]1(C(=O)O)CS(=O)(=O)[C@H]2[C@H](C(=O)O)[C@H]21` [LY404039, reference compound], the “effect on memantine-induced brain glucose metabolism / 2DG uptake (in words)” value in data set [4] (mouse brain) is “inhibited”. For the same compound, the “effect on REM sleep (in words)” value in data set [5] is given as “affect REM sleep”.
Take `Cc1cc(Oc2ccc(-c3ccn4c(CC5CC5)nnc4c3C(F)(F)F)cc2F)ccn1` [Co. No. 2, 7-[3-Fluoro-4-(2′-methyl-pyridin-4-yloxy)-phenyl]-8-trifluoromethyl-3-cyclopropylmethyl-1,2,4-triazolo[4,3-a]pyridine]: the ED50 stood at 28.3 mg/kg in data set [6], 12.3 mg/kg in data set [2], 21.4 mg/kg in data set [3] (setting [7]) and 18.7 mg/kg in data set [3] (setting [8]). Also, the EC50 in data set [1] is 50.1 nM. Further, the “L.A.D. (lowest active dose) for significant (p<0.05) reduction of 2DG uptake in the hippocampus compared to memantine response” value in data set [4] came out at 10 mg/kg.
